Measurements: US9750755B2, “Antimicrobial compositions and related methods” (DeLaval Holding AB, priority 2006, dated 2017)

Key:
S. aureus (ATCC 6538) = experiment: Modified EN 1656 dilution neutralization test, milk as interferent, 30 seconds contact; type: cell-based, Staphylococcus aureus; details: 10% lactic acid used alone, typical
Method: (§1) The test bacteria were Eschericia coli (ATCC 11229), which were originally isolated from mastitis infection and obtained on commercial order from Mastitlaboratoriet, SVA, and Staphococcus aureus (ATCC6538 from Microbiologics, St. Cloud, Minn.), which was also isolated from mastitis infection.
(§2) According to a modified EN1656 dilution neutralization method, freeze dried E. coli (ATCC 11229) and S. aureus (ATCC 6538) were hydrated, grown for four days and transferred. Then bacteria were diluted to form a suspension to have an initial concentration of about 10^8 cfu/mL.
(§3) Freeze-dried pellets of E. coli (ATCC 11229) and S. aureus (ATCC 6538) were hydrated, placed in test tubes containing nutrient agar and incubated at 37° C. for 24 hours. Sterile buffer (0.25 M phosphate adjusted to pH 7.2) was used to dilute and transfer the bacteria to additional nutrient agar tubes, which were incubated for another 24 hours. S. aureus was then diluted with buffer and transferred to nutrient agar in French bottles, and E. coli was diluted and transferred to fresh nutrient agar tubes. Both types of bacteria were incubated at 37° C. for 72 hours. E. coli was then diluted and transferred to nutrient agar in French bottles. […]
(§4) The plates with bacterial populations between 25 and 250 were counted and results were expressed as logarithmic reductions according to EN 1656 test method.

E. coli (ATCC 11229) = experiment: as above; type: cell-based, Escherichia coli; details: 10% lactic acid used alone, typical
Method: as §1, §2, §3, §4

In the case of `CC(O)C(=O)O` (stereo not drawn) [lactic acid, L(+)-2-Hydroxypropanoic acid], the “log reduction in S. aureus concentration” value (S. aureus (ATCC 6538)) is reported as “less than a three log reduction” and the “log reduction in E. coli concentration” value (E. coli (ATCC 11229)) is reported as “five log reduction”.
